The values that follow come from patent US5908852A, “1,3,5 trisubstituted pyrazole compounds for treatment of inflammation” (G. D. Searle & Co., priority 1996, dated 1999).

In one assay the target is Human COX I (Homo sapiens, UniProt P23219). In words: biochemical. The note with it: recombinant enzyme, CHAPS-solubilized insect cell membranes; arachidonic acid 10 μM; pre-incubation 10-20 minutes; pH 8.0; read-out: Human COX I ID50. As to the method:
(§1) Recombinant baculoviruses were isolated by transfecting 4 μg of baculovirus transfer vector DNA into SF9 insect cells ([…]) along with 200 ng of linearized baculovirus plasmid DNA by the calcium phosphate method. See M. D. Summers and G. E. Smith, A Manual of Methods for Baculovirus Vectors and Insect Cell Culture Procedures, Texas Agric. Exp. Station Bull. […] Recombinant viruses were purified by three rounds of plaque purification and high titer (10E7-10E8 pfu/ml) stocks of virus were prepared. For large scale production, SF9 insect cells were infected in 10 liter fermentors (0.5×10^6 /ml) with the recombinant baculovirus stock such that the multiplicity of infection was 0.1. After 72 hours the cells were centrifuged and the cell pellet homogenized in Tris/Sucrose (50 mM: 25%, pH 8.0) containing 1% 3-[(3-cholamidopropyl)dimethylammonio]-1-propanesulfonate (CHAPS). The homogenate was centrifuged at 10,000×G for 30 minutes, and the resultant supernatant was stored at -80° C. before being assayed for COX activity.
COX activity was assayed as PGE2 formed/μg protein/time using an ELISA to detect the prostaglandin released. CHAPS-solubilized insect cell membranes containing the appropriate COX enzyme were incubated in a potassium phosphate buffer (50 mM, pH 8.0) containing epinephrine, phenol, and heme with the addition of arachidonic acid (10 μM). Compounds were pre-incubated with the enzyme for 10-20 minutes prior to the addition of arachidonic acid. […] The PGE2 formed was measured by standard ELISA technology (Cayman Chemical).

A further assay addresses T1, Human COX II (Homo sapiens, UniProt P35354).
T1 construct: A 2.0 kb fragment containing the coding region of either human or murine COX-I or human or murine COX-II was cloned; made in house; host or cells: SF9 insect cells infected with recombinant baculovirus (transfer vector pVL1393); CHAPS-solubilized preparation
T1 sequence (P35354 18-604): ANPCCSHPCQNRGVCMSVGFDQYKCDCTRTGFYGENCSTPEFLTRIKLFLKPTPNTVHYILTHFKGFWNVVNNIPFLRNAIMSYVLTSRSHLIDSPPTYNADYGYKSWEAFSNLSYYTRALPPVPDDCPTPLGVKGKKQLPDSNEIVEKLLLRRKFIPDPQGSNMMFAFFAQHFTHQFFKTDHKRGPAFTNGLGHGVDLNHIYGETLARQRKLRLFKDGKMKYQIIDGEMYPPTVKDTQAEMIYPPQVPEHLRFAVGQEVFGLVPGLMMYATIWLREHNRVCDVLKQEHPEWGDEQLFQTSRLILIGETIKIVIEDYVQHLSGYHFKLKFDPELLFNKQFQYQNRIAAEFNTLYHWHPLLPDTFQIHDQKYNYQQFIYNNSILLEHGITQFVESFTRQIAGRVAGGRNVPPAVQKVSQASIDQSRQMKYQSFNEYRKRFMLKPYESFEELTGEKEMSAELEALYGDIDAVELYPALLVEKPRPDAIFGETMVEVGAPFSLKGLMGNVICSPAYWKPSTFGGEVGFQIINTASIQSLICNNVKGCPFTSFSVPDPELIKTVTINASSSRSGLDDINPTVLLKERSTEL
In words: COX II activity in vitro (PGE2 formed, ELISA). The note with it: recombinant enzyme, CHAPS-solubilized insect cell membranes; arachidonic acid 10 μM; pre-incubation 10-20 minutes; pH 8.0; read-out: Human COX II ID50. The assay is classed as biochemical. As to the method:
as §1
COX activity was assayed as PGE2 formed/μg protein/time using an ELISA to detect the prostaglandin released. […] The PGE2 formed was measured by standard ELISA technology (Cayman Chemical).

Human COX I, sequence (P23219 24-599): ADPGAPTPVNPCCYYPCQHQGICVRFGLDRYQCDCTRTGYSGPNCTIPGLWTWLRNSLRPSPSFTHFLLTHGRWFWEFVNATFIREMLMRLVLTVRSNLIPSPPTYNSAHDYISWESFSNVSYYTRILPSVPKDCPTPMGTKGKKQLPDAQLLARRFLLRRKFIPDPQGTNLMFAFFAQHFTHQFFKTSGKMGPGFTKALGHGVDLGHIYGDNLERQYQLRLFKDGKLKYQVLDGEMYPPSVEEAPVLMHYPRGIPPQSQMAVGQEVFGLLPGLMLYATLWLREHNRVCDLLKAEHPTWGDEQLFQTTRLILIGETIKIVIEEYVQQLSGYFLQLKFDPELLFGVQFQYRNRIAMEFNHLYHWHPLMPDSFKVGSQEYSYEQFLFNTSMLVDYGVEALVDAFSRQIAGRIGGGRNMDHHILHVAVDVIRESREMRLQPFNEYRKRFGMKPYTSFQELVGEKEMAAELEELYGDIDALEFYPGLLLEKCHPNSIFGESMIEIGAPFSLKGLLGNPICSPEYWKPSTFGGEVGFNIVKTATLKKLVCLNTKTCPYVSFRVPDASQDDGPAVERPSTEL

Take `Cc1ccc(-c2cc(-c3ccc(C)cc3)n(-c3ccc(S(N)(=O)=O)cc3)n2)cc1` [Example 2a, 4-(3,5-bis(4-methylphenyl)-1H-pyrazol-1-yl)benzenesulfonamide]: the IC50 at Human COX I is 13.6 µM. Regarding `NS(=O)(=O)c1ccc(-n2nc(-c3ccccc3)cc2-c2ccc(Cl)cc2)cc1` [Example 2b, 4-(5-(4-chlorophenyl)-3-phenyl-1H-pyrazol-1-yl)benzenesulfonamide], on Human COX I, the IC50 worked out at 19.1 µM.

For `COc1ccc(-c2cc(-c3ccc(OC)cc3)n(-c3ccc(S(N)(=O)=O)cc3)n2)cc1` [Example 2c, 4-(3,5-bis(4-methoxyphenyl)-1H-pyrazol-1-yl)benzenesulfonamide], the IC50 at Human COX II is 0.5 µM; at Human COX I, 2.1 µM. For the compound `Cc1ccc(-c2cc(-c3ccc(Cl)cc3)n(-c3ccc(S(N)(=O)=O)cc3)n2)cc1` [Example 2d, 4-(5-(4-chlorophenyl)-3-(4-methylphenyl)-1H-pyrazol-1-yl)benzenesulfonamide], the IC50 on Human COX I came out at 12.7 µM. As for `NS(=O)(=O)c1ccc(-n2nc(-c3ccc([N+](=O)[O-])cc3)cc2-c2ccc(Cl)cc2)cc1` [Example 2e, 4-(5-(4-chlorophenyl)-3-(4-nitrophenyl)-1H-pyrazol-1-yl)benzenesulfonamide], the IC50 on Human COX II is 0.7 µM; at Human COX I, more than 100 µM.
